Assay results published in US9757350B2, “Small molecule inhibitors of replication protein A that also act synergistically with cisplatin” (Indiana University Research and Technology Corp., priority 2010, dated 2017).
Entries after “also recorded” stand apart in the source; their conditions may differ. Like-named read-outs stand apart in the source and are kept apart here.

Assays:
H1299 cells = assay: CCK-8 cell viability assay, H1299; format: cell-based
Method: Referring now to FIG. 13A. Cell Viability and Apoptosis of Ovarian and p53 null Lung Cancer Cell Lines. A) Ovarian cancer cell line A2780 and the p53 null lung cancer cell line, H1299, were treated with log dosing of MCI13E and viability analyzed via CCK-8 metabolic assay as described in Methods. Data is presented as cell survival which was determined as a percent of the untreated control cells and represents the average and standard deviation of triplicate experiments Referring now to FIG. 13B.
Ovarian cancer cell line, A2780, cells are difficult to use for crystal violet analysis due to their enhanced sensitivity to treatment. Therefore, the cell counting kit-8 (CCK) was used to determine the viability of A2780 cells in addition to the p53 null lung cancer cell line H1299, following a 24 hour treatment with log dosing of SMI. Cells were plated (1×10^5) in 24-well dishes and treated with inhibitor after 24 hours. After treatment media was aspirated and 1 ml of DMEM was added in addition to 100 μL of CCK-8 solution. Absorbance at 450 nm was measured over 4 hours in a SpectraMax M5 plate reader and values are presented as the percent untreated control at the two hour time point for three separate plate replicates each containing three assays per plate.

A549 cell lines = assay: Combination with ionizing radiation, A549; format: cell-based; conditions: A549, data not shown
A549 cells = assay: Crystal violet cell viability assay, A549; format: cell-based; conditions: 48 hours
Method: Referring now to FIG. 11A. Gel showing effect of MCI13E on DNA-RPA binding. […] Cytotoxicity was analyzed via crystal violet analysis as described in “methods” 48 hours following MCI13E treatment. Data represent the average and standard deviation of four replicate experiments with each replicate containing triplicate determinations and the circles represent data from H460 cells and squares A549 cells. Referring now to FIG. 11C. Graph of MCI13E induced death via apoptosis in NSCLC cell lines. Cell were treated with the indicated concentrations of MCI13E for 48 hours and analyzed for the induction of apoptosis via Annexin V/PI staining Referring now to FIG. 11D. Graph of cell survival as a function of [MCI1EC]. Percent survival was calculated for each cell line using untreated cells as a control. Data presented are the average and standard deviation from four replicate experiments. […]
Cell Viability Assays—A crystal violet cell viability assay was performed to determine cytotoxicity of SMI. […] Stained cells were resuspended in 500 μl DMSO containing 1% SDS and absorbance was measured at 590 nm in a SpectraMax M5 plate reader (Molecular Devices, Sunnyvale, Calif.) and analyzed using SoftMax Pro 5.2. Percent viability is taken as an absorbance percentage against control untreated cells. […]

SpPot1(DBD) = target: T1, SpPot1(DBD) (Schizosaccharomyces pombe, UniProt O13988); assay: SpPot1(DBD) ssDNA binding; conditions: protein pre-incubated with SMI
T1 construct: the Schizosaccharomyces pombe Pot1(DBD) domain (11) were studied
T1 sequence (O13988 1-389 limits assumed): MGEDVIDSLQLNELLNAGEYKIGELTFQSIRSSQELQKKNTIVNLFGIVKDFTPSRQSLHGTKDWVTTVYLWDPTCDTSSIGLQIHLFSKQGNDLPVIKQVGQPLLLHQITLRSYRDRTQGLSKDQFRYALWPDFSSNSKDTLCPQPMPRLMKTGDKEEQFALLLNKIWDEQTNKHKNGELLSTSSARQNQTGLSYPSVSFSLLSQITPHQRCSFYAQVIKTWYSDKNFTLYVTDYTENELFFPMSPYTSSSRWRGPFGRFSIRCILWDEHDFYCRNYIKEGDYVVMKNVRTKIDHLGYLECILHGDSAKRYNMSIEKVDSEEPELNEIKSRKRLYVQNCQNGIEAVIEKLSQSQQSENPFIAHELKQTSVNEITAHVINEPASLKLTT
Method: In order to study the specificity of the CheSS19, and MCI13E/F compounds, their effects on two ssDNA binding proteins which use OB-folds for recognition and binding of ssDNA, E. coli SSB (6) and the Schizosaccharomyces pombe Pot1(DBD) domain (11) were studied. The EcSSB protein is a non-sequence-specific ssDNA binding protein, whereas the SpPot1(DBD) protein is a telomere-specific, ssDNA binding protein. In these experiments, protein was pre-incubated with the SMIs, as was done for the RPA experiments, prior to addition of radiolabeled ssDNA to the reactions.

[1] = target: T2, full-length heterotrimeric RPA (Homo sapiens, UniProt P27694); assay: EMSA in vitro DNA binding assay, full-length heterotrimeric RPA; conditions: ssDNA substrate
T2 construct: Human full-length, un-tagged heterotrimeric RPA (RPA) was purified as previously describe; made in house
T2 sequence (P27694 whole entry): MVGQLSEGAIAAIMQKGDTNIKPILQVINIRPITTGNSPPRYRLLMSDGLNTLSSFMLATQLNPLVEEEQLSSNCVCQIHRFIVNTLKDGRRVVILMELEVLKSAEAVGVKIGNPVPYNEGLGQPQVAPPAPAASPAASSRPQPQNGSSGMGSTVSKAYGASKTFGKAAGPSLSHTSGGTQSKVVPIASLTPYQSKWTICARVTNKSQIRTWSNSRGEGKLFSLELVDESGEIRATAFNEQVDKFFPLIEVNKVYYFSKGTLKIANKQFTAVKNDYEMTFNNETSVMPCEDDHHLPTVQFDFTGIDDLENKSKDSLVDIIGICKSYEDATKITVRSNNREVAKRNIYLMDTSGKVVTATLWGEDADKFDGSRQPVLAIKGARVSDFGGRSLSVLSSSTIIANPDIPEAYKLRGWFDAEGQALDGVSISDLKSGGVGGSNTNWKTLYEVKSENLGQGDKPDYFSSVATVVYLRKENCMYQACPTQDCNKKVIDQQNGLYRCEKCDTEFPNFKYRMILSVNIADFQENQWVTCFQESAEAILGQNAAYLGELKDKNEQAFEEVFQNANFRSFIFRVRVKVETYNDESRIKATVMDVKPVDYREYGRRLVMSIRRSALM
T2 sequence (P15927 whole entry partner): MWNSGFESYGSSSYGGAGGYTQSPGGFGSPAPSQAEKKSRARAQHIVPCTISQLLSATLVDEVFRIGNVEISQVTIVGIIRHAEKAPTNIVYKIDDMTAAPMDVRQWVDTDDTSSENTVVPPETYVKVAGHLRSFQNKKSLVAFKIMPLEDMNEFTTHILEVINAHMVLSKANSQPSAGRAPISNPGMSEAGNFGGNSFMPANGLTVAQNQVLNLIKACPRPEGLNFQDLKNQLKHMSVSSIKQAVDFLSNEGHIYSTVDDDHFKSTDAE
T2 sequence (P35244 whole entry partner): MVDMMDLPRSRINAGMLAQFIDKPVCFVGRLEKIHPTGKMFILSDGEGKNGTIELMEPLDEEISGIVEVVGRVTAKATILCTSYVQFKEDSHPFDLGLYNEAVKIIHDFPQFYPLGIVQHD
Method: RPA. Human full-length, un-tagged heterotrimeric RPA (RPA) was purified as previously describe.
RPA and DBD-A/B Binding. EMSAs were performed as previously described (22) using a 30-base purine rich ssDNA substrate (3Pc3). Briefly, reactions contained 12.5 nM 5′-[^32P]-labeled 3Pc3 ssDNA and the indicated concentrations of RPA or DBD-A/B. Protein was pre-incubated with the indicated concentration of SMI for 30 minutes at 37° C. DNA was then added and reactions incubated for an additional 5 minutes at room temperature in a final reaction volume of 40 μL. Reactions were then resolved on a 6% native polyacrylamide gel and electrophoresed at 170 volts for 1 hour. Gels were dried and quantified via phosphorimager analysis and ImageQuant software (Molecular Dynamics).

[2] = H1299, 24 hours after exposing the cells, read-out: IC50, cell viability
[3] = H1299, read-out: IC50, cell viability (text to Table 3)

Row | Compound | IC50 (H1299 cells; H1299 (p53 null), 24 hours of treatment, CCK-8, read-out: IC50, cell viability) [nM] | IC50 (H1299 cells; [2]) [nM] | IC50 (H1299 cells; [3]) [nM] | Cell death in combination with ionizing radiation (A549 cell lines) | IC50 (A549 cells) [nM] | Effect on SpPot1(DBD) ssDNA binding (SpPot1(DBD)) | Inhibition of full-length RPA DNA binding [1]
1 | CC1(C)C2CCC1(C)C(OC(=O)CBr)C2 (racemic) [MCI13E, (+/−)-Isobornyl bromoacetate] | ~4000 | 500 | ~500 | at best, an additive increase in cell death | ~5000 | no significant inhibition | inhibits RPA-DNA binding in vitro; also recorded: inhibition of the full-length heterotrimer RPA
2 | CC1(C)C2CCC1(C)C(OC(=O)CI)C2 (racemic) [MCI13F, (+/−)-Isobornyl iodoacetate] |  | 500 | ~500 | at best, an additive increase in cell death | ~5000 | no significant inhibition | slightly more effective
